Measured values published in patent US8415469B2, “Compounds and methods for kinase modulation, and indications therefor” (Plexxikon Inc., priority 2005, dated 2013).

Columns and labels:
Assay type in all cases: biochemical
Jnk1 = target: T1, Jnk1 (Homo sapiens, UniProt P45983); experiment: AlphaScreen kinase assay, Jnk1; details: read-out: IC50, activity toward kinase Jnk1
T1 construct: purchased Upstate Biotechnology

Jnk3 = target: T2, Jnk3 (Homo sapiens, UniProt P53779); experiment: AlphaScreen kinase assay, Jnk3; details: read-out: IC50, activity toward kinase Jnk3
T2 construct: purchased Upstate Biotechnology

Jnk2 = target: T3, Jnk2 (Homo sapiens, UniProt P45984); experiment: AlphaScreen kinase assay, Jnk2; details: read-out: IC50, activity toward kinase Jnk2
T3 construct: purchased Roche Protein Expression Group (Indianapolis, IN)
Description: AlphaScreen assay was used to screen additional kinases. The assay is similarly dependent on the phosphorylation of a peptide substrate. In this assay, an antibody that recognizes phosphorylated substrate is bound to an acceptor bead. The peptide substrate is attached to biotin, which binds to a donor head that contains streptavidin. Thus phosphorylated substrate is bound by antibody and streptavidin, bringing the donor and acceptor heads into close proximity when kinase is not inhibited. The donor produces singlet oxygen which results in emission from the acceptor when they are in close proximity. Conversely, when kinase is inhibited, the donor and acceptor beads are not associated and the emission from the acceptor is reduced.
AlphaScreen assays were done using compounds dissolved in DMSO to a concentration of 20 mM. The compounds were diluted accordingly to the desired final concentrations in each sample well, using 1:3 serial dilution for a total of 8 concentration points.

B-Raf V600E = target: T4, B-Raf V600E (Homo sapiens, UniProt P15056, V600E); experiment: AlphaScreen kinase assay, B-Raf V600E; details: read-out: IC50, activity toward kinase B-Raf V600E
T4 construct: P4254. pFastBacBD-CDC37 BRAF D437-K722-X, V600E; His6 with pFastBac HT leader (TEV site) (N); made in house; host or cells: Sf9 (baculovirus; chaperone CDC37 co-expressed)

Fms = target: T5, Fms (Homo sapiens, UniProt P07333); experiment: AlphaScreen kinase assay, Fms; details: read-out: IC50, activity toward kinase Fms
T5 construct: purchased Upstate Biotechnology

B-Raf = target: T6, B-Raf (Homo sapiens, UniProt P15056); experiment: AlphaScreen kinase assay, B-Raf; details: read-out: IC50, activity toward kinase B-Raf
T6 construct: purchased Upstate Biotechnology

FGFR1 = target: T7, FGFR1 (Homo sapiens, UniProt P11362, C488A/C584S); experiment: AlphaScreen kinase assay, FGFR1; details: read-out: IC50, activity toward kinase FGFR
T7 construct: P1351.pET N6 BI-PTP FGFR A458-E765-X C488A, C584S; made in house; host or cells: E. coli (PTP1B co-expressed)

c-Raf-1 = target: T8, c-Raf-1 (Homo sapiens, UniProt P04049); experiment: AlphaScreen kinase assay, c-Raf-1; details: read-out: IC50, activity toward kinase c-Raf-1
T8 construct: purchased Upstate Biotechnology

Ret = target: T9, Ret (Homo sapiens, UniProt P07949); experiment: AlphaScreen kinase assay, Ret; details: read-out: IC50, activity toward kinase Ret
T9 construct: P1378.pET-SF BI-PTP RET H661-R1012 HIS; made in house
T9 sequence (P07949 with tags, fused parts or gaps): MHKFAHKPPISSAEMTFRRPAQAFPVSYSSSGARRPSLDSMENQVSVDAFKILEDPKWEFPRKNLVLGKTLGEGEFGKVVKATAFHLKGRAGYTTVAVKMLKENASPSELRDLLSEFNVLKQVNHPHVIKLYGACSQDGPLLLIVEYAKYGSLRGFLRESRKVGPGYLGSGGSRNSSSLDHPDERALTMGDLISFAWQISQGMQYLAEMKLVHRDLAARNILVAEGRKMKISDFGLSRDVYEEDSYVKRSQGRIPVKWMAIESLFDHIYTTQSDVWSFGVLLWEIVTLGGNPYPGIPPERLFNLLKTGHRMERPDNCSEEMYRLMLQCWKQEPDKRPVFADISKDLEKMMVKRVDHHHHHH

Flt1 = target: T10, Flt1 (Homo sapiens, UniProt P17948); experiment: AlphaScreen kinase assay, Flt1; details: read-out: IC50, activity toward kinase Flt1
T10 construct: P1826.pETN6 BI-PTP FLT1 M799-D1165-X WT; His6 (N); made in house; host or cells: E. coli (PTP1B co-expressed)
T10 sequence (P17948 with tags, fused parts or gaps): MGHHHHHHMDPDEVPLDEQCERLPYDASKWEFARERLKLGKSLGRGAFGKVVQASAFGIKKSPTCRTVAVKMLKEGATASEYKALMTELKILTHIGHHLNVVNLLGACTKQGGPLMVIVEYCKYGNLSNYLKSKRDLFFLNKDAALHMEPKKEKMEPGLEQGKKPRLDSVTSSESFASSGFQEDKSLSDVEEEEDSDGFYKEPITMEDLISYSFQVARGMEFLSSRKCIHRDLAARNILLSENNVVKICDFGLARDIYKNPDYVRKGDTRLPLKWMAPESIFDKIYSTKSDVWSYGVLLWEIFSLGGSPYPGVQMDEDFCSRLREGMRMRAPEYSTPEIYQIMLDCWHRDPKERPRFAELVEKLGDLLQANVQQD

Kit = target: T11, Kit (Homo sapiens, UniProt P10721); experiment: AlphaScreen kinase assay, Kit; details: read-out: IC50, activity toward kinase Kit
T11 construct: P1332.N6 BI PTP KIT M552-K948-X COD; His6 (N); made in house; host or cells: E. coli (PTP1B co-expressed)

Measured: IC50

T4 sequence (P15056 with tags, fused parts or gaps V600E): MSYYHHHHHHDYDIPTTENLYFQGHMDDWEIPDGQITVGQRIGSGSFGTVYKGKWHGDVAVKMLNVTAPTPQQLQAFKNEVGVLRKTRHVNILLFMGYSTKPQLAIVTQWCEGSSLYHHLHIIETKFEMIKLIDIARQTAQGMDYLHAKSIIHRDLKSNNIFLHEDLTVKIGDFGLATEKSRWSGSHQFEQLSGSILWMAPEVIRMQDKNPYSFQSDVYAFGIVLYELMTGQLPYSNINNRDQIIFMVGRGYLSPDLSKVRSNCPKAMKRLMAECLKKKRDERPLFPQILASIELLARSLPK
T2 sequence (P53779 whole entry): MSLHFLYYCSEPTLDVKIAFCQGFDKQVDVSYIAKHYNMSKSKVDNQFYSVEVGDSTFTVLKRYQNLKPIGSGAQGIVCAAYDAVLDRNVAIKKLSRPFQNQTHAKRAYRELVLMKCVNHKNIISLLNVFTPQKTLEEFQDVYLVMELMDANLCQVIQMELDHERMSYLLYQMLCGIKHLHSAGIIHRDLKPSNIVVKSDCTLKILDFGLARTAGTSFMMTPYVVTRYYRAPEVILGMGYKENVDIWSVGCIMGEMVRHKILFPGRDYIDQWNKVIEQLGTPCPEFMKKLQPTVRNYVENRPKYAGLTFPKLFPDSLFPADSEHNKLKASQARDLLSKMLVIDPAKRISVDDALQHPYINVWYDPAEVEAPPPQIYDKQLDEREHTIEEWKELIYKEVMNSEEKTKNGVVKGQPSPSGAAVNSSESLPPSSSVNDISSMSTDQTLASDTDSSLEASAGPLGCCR
T5 sequence (P07333 20-972): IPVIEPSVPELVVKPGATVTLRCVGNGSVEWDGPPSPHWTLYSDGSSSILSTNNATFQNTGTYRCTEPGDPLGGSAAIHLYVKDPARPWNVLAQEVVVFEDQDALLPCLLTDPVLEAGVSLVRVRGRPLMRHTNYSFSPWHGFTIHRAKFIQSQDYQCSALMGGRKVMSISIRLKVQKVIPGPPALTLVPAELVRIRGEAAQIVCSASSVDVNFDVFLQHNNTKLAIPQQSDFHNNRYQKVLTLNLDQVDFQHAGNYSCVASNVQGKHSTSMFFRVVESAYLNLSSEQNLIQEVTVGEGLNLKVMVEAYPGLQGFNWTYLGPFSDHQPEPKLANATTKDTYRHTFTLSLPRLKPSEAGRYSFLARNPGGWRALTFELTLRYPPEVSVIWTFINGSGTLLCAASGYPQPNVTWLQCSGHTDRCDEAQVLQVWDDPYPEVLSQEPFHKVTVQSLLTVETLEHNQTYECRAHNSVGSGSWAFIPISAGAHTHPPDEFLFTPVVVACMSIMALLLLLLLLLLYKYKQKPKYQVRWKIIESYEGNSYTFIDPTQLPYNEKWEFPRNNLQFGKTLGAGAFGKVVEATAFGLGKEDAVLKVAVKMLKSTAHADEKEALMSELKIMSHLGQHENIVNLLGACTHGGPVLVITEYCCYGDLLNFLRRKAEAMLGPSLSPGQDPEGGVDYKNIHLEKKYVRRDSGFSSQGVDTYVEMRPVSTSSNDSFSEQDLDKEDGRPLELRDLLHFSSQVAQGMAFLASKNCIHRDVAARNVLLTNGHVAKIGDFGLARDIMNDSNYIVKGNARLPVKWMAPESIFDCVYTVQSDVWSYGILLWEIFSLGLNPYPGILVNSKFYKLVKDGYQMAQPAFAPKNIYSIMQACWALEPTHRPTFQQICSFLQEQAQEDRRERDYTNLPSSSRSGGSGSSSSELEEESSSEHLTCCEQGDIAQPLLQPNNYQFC
T3 sequence (P45984 whole entry): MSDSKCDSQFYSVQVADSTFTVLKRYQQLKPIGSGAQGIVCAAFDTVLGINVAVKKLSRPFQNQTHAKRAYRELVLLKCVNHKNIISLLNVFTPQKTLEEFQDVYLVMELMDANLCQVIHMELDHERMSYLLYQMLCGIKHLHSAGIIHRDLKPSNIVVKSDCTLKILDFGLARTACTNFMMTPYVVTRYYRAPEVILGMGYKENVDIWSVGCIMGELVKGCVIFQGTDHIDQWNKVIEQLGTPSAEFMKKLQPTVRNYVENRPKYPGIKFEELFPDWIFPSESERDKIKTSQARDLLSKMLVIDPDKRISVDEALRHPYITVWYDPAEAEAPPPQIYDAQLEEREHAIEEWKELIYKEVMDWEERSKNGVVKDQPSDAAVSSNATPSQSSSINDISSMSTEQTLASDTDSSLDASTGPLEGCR
T1 sequence (P45983 whole entry): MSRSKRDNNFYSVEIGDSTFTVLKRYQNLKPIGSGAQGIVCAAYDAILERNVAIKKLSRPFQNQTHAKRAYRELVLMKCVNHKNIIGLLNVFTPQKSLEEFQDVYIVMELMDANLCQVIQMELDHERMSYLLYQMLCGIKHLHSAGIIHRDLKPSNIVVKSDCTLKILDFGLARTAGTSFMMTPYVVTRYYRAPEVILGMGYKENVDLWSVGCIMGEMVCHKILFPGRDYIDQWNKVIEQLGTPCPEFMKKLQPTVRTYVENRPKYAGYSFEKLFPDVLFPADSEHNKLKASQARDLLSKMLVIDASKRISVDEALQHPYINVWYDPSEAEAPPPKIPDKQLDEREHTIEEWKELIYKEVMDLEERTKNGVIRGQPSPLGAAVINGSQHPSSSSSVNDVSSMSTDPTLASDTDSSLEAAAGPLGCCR
T6 sequence (P15056 whole entry): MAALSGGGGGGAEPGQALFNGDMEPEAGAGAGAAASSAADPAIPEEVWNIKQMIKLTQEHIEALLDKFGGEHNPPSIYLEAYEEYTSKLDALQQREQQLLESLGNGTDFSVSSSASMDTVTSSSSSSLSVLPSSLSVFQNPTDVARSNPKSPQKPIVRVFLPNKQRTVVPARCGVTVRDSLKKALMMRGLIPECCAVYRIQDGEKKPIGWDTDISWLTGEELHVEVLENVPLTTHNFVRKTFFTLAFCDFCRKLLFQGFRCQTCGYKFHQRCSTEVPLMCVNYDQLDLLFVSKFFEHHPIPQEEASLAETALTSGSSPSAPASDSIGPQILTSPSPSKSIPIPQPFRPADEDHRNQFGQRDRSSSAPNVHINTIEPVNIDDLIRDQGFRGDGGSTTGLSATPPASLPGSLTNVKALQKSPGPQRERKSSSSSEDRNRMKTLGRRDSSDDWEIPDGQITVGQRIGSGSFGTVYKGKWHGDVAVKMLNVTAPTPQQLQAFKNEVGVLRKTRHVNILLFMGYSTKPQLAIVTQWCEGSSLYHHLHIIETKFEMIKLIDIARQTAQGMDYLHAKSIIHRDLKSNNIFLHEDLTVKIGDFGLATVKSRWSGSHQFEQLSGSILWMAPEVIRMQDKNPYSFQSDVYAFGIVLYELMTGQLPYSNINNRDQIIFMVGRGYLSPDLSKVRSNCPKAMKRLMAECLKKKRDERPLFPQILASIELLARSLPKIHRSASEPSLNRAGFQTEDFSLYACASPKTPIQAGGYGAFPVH
T7 sequence (P11362 458-765 C488A/C584S): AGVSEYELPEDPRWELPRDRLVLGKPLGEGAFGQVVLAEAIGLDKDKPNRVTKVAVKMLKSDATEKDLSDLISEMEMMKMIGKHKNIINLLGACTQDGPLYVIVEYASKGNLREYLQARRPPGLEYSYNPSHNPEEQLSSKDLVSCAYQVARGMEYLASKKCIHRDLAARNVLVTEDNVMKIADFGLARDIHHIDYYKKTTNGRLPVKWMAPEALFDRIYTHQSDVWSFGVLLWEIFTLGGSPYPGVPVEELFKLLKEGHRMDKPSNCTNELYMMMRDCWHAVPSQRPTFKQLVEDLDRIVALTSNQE
T8 sequence (P04049 whole entry): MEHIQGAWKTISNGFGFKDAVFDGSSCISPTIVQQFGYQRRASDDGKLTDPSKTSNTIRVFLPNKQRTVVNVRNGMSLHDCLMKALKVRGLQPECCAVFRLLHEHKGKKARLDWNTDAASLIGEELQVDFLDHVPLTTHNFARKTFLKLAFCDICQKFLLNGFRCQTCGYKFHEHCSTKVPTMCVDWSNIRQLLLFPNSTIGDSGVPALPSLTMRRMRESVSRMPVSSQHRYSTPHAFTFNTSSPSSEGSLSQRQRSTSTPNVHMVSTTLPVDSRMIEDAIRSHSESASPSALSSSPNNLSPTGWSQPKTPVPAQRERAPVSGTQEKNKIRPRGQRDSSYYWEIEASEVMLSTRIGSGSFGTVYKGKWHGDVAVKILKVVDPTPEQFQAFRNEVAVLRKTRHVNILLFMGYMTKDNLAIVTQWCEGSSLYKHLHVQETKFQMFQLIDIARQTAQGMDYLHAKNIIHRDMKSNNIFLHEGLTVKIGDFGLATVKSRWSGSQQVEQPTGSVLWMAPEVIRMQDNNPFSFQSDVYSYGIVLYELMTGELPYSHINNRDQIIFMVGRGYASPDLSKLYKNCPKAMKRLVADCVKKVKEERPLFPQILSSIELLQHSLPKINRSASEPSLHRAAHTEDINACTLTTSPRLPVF
T11 sequence (P10721 with tags, fused parts or gaps): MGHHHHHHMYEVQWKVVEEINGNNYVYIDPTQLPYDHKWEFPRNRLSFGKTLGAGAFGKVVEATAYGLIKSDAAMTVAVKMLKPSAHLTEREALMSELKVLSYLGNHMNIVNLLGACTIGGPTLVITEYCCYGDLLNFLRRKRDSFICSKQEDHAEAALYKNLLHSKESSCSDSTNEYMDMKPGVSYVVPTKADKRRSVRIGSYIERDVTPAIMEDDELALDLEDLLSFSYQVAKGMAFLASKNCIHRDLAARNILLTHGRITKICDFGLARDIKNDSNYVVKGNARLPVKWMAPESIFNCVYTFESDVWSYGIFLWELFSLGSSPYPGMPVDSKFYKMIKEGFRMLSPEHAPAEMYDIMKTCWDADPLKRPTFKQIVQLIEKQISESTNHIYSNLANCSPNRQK

Cn1cccc1-c1nc(-c2ccnc3[nH]ccc23)no1 [Compound P-0285]
≤ 10 µM: Jnk1 | Jnk3 | Jnk2

O=C(c1c[nH]c2ncc(-c3ccccc3)cc12)c1cccc2c1ccn2C(=O)NCc1ccccc1 [Compound P-1611, 4-(5-Phenyl-1H-pyrrolo[2,3-b]pyridine-3-carbonyl)-indole-1-carboxylic acid benzylamide]
≤ 10 µM: Jnk1 | B-Raf V600E | Jnk3 | Fms | Jnk2

O=C(Nc1ccncc1)Nc1cccc(C(=O)c2c[nH]c3ncccc23)c1 [Compound P-1760, 1-Pyridin-4-yl-3-[3-(1H-pyrrolo[2,3-b]pyridine-3-carbonyl)-phenyl]-urea]
≤ 10 µM: B-Raf | Jnk1 | B-Raf V600E | Fms | Jnk2

O=C(c1cccc(O)c1F)c1c[nH]c2ncc(-c3cncnc3)cc12 [Compound P-0744, (2-fluoro-3-hydroxy-phenyl)-(5-pyrimidin-5-yl-1H-pyrrolo[2,3-b]pyridin-3-yl)-methanone]
≤ 10 µM: B-Raf | B-Raf V600E | FGFR1 | c-Raf-1 | Ret | Jnk2

CCCCNC(=O)Nc1ccc(F)c(C(=O)c2c[nH]c3ncc(-c4cccc(S(C)(=O)=O)c4)cc23)c1 [Compound P-1627, 1-Butyl-3-{4-fluoro-3-[5-(3-methanesulfonyl-phenyl)-1H-pyrrolo[2,3-b]pyridine-3-carbonyl]-phenyl}-urea]
≤ 10 µM: B-Raf | Jnk1 | B-Raf V600E | Fms | Jnk2

O=C(Nc1cccc(C(=O)c2c[nH]c3ncc(-c4cccnc4)cc23)c1)Nc1ccc(Cl)c(C(F)(F)F)c1 [Compound P-1751, 1-(4-Chloro-3-trifluoromethyl-phenyl)-3-[3-(5-pyridin-3-yl-1H-pyrrolo[2,3-b]pyridine-3-carbonyl)-phenyl]-urea]
≤ 10 µM: B-Raf | Jnk1 | B-Raf V600E | Fms | Jnk2

CCCCNC(=O)n1ccc2c(Cc3c[nH]c4ncc(-c5cccnc5)cc34)cccc21 [Compound P-1656, 4-(5-pyridin-3-yl-1H-pyrrolo[2,3-b]pyridin-3-ylmethyl)-indole-1-carboxylic acid butylamide]
≤ 10 µM: B-Raf | Jnk1 | B-Raf V600E | Fms | Jnk2

COc1ccc(NC(=O)Nc2cccc(C(=O)c3c[nH]c4ncc(-c5cccnc5)cc34)c2)cn1 [Compound P-1779, 1-(6-Methoxy-pyridin-3-yl)-3-[3-(5-pyridin-3-yl-1H-pyrrolo[2,3-b]pyridine-3-carbonyl)-phenyl]-urea]
≤ 10 µM: B-Raf | Jnk1 | B-Raf V600E | Fms | Jnk2

O=C(Nc1ccc(C(F)(F)F)cc1)Nc1cccc(C(=O)c2c[nH]c3ncc(-c4cccnc4)cc23)c1 [Compound P-1731, 1-[3-(5-Pyridin-3-yl-1H-pyrrolo[2,3-b]pyridine-3-carbonyl)-phenyl]-3-(4-trifluoromethyl-phenyl)-urea]
≤ 10 µM: B-Raf | Jnk1 | B-Raf V600E | Fms | Jnk2

CCCCNC(=O)n1ccc2c(C(=O)c3c[nH]c4ncc(-c5ccc(Cl)cc5)cc34)cccc21 [Compound P-1602, 4-[5-(4-Chloro-phenyl)-1H-pyrrolo[2,3-b]pyridine-3-carbonyl]-indole-1-carboxylic acid butylamide]
≤ 10 µM: B-Raf | Jnk1 | B-Raf V600E | Fms | Jnk2 | Flt1

O=C(Nc1cccc(C(=O)c2c[nH]c3ncc(-c4cccnc4)cc23)c1)Nc1ccc(C(F)(F)F)cc1Cl [Compound P-1727, 1-(2-Chloro-4-trifluoromethyl-phenyl)-3-[3-(5-pyridin-3-yl-1H-pyrrolo[2,3-b]pyridine-3-carbonyl)-phenyl]-urea]
≤ 10 µM: B-Raf | Jnk1 | B-Raf V600E | Fms | Jnk2

COc1cc(NC(=O)Nc2cccc(C(=O)c3c[nH]c4ncc(-c5cccnc5)cc34)c2)cc(C(F)(F)F)c1 [Compound P-1778, 1-(3-Methoxy-5-trifluoromethyl-phenyl)-3-[3-(5-pyridin-3-yl-1H-pyrrolo[2,3-b]pyridine-3-carbonyl)-phenyl]-urea]
≤ 10 µM: B-Raf | Jnk1 | B-Raf V600E | Fms | Jnk2

O=C(Nc1cccc(F)c1)Nc1cccc(C(=O)c2c[nH]c3ncc(-c4cccnc4)cc23)c1 [Compound P-1730, 1-(3-Fluoro-phenyl)-3-[3-(5-pyridin-3-yl-1H-pyrrolo[2,3-b]pyridine-3-carbonyl)-phenyl]-urea]
≤ 10 µM: B-Raf | Jnk1 | B-Raf V600E | Fms | Jnk2

Cc1c(NS(C)(=O)=O)cccc1C(=O)c1c[nH]c2ncc(-c3cccnc3)cc12 [Compound P-0121, N-[2-Methyl-3-(5-pyridin-3-yl-1H-pyrrolo[2,3-b]pyridine-3-carbonyl)-phenyl]-methanesulfonamide]
not listed: Jnk3 | B-Raf | Flt1
≤ 10 µM: all other assays above

O=C(Nc1cccc(C(=O)c2c[nH]c3ncc(-c4ccc(F)cc4)cc23)c1)Nc1ccc(C(F)(F)F)cc1Cl [Compound P-1753, 1-(2-Chloro-4-trifluoromethyl-phenyl)-3-{3-[5-(4-fluoro-phenyl)-1H-pyrrolo[2,3-b]pyridine-3-carbonyl]-phenyl}-urea]
≤ 10 µM: B-Raf | B-Raf V600E | Jnk3 | Fms | Jnk2

O=C(Nc1cccc(C(=O)c2c[nH]c3ncc(-c4cccnc4)cc23)c1)Nc1cccc(C(F)(F)F)c1 [Compound P-1755, 1-[3-(5-Pyridin-3-yl-1H-pyrrolo[2,3-b]pyridine-3-carbonyl)-phenyl]-3-(3-trifluoromethyl-phenyl)-urea]
≤ 10 µM: B-Raf | Jnk1 | B-Raf V600E | Fms | Jnk2

COc1ccc(NC(=O)Nc2cccc(C(=O)c3c[nH]c4ncc(-c5cccnc5)cc34)c2)cc1 [Compound P-1723, 1-(4-Methoxy-phenyl)-3-[3-(5-pyridin-3-yl-1H-pyrrolo[2,3-b]pyridine-3-carbonyl)-phenyl]-urea]
≤ 10 µM: B-Raf | Jnk1 | B-Raf V600E | Fms | Jnk2
